In publication PMC10376059, “New NADPH Oxidase 2 Inhibitors Display Potent Activity against Oxidative Stress by Targeting p22^phox-p47^phox Interactions” (Antioxidants, 2023):

Tests used:
MTT cytotoxicity assay = format: cell-based, human; conditions: human; HL-60 cells, 24 h, 10 mM, MTT; read-out: cell viability
Description: (§1) To verify the cytotoxicity of the acrylonitrile derivatives, the MTT reduction method was performed. Briefly, HL-60 cells were seeded in a flat-bottomed 96-well plate at a density of 10,000 cells per well. […] In a second series of experiments, cells were incubated under the same conditions but for 72 h. Etoposide was used as a positive control. Ten μL of MTT was added at a final concentration of 0.5 mg/mL, incubated at 37 °C for 4 h, and then solubilized with 10% SDS in 0.1 mM HCl and incubated overnight at 37 °C. Finally, a blue-colored compound (formazan) formation was measured at 570 nm in a multiplate reader (StatFax 4200, Awareness Technology, Inc., Palm City, FL, USA). The viability percentage was obtained as follows: Viability % = [treated cells DO × 100]/[DO cells control].

NOX2 = biological target: T1, NOX2 (Homo sapiens, UniProt P14598); assay: NADPH oxidase (NOX2) inhibition, DCF fluorescence in PMA-activated neutrophil-differentiated HL-60 cells; format: cell-based; conditions: for IC50: neutrophil-differentiated HL-60 cells, PMA 0.8 µM, DCF fluorescence, 0.05 to 50 µM
T1 construct: HL-60 cells expressed the components of NOX2, including gp91, p22^phox, p47^phox, and p67^phox; endogenous in cells; whole cells in A1, membrane preparations in A3 and A4
T1 sequence (P14598 1-390): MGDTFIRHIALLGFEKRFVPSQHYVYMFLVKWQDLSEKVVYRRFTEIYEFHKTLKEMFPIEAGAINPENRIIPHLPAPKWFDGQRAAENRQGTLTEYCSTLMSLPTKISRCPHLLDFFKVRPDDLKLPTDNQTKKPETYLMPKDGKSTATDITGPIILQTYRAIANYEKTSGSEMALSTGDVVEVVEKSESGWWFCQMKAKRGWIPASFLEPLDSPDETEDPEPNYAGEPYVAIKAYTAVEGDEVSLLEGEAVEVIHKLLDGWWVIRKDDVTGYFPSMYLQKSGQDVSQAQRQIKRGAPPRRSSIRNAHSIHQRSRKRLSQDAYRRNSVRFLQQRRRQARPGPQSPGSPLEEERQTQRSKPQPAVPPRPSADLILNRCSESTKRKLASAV
Description: The differentiation of HL-60 cells to neutrophils was performed after reaching a concentration of between 2 × 10^6 and 5 × 10^6 cells/mL in the differentiation medium: RPMI 1640 medium; 10% FBS; 100 IU/mL of penicillin/streptomycin; and 1.3% DMSO for 7 days, replenishing the differentiation medium every 2 days.
The 2′,7′-dichlorofluorescein (DCF) fluorescence analysis was used to determine NADPH oxidase activity in neutrophil-differentiated HL-60 cells. The method, based on a fluorimetric assay, was adapted from Boly et al.. Briefly, 1 × 10^6 neutrophil-differentiated HL-60 cells/mL were incubated for 45 min. at 37 °C in darkness with DCF-DA (1 mg/mL). The cell suspension was then transferred to a 15 mL conical tube and centrifuged at 330× g × 10 min at 37 °C. After the supernatant was removed, the cells were re-suspended in Hanks balanced saline buffer (HBSS, Sigma-Aldrich, St. Louis, MO, USA) and transferred to dark 96-well plates with a flat glass bottom (Thermo Scientific Nunc 96 microwell® black, Optical Botton # 1.5 Cover Glass Base, Thermo Fisher Scientific). Then, 200 μL of cell suspension per well were incubated at 37 °C for 30 min with the indole heteroaryl-acrylonitriles at increasing concentrations (0.05 to 50 μM). […] Finally, PMA (0.8 μM) was added to each well for 10 min. to generate the activation of NOX2. The generation of the DCF fluorescence product was monitored in an automatic microplate reader (FLx800, BioTek Instruments, Winooski, VT, USA) at 1-min intervals at 37 °C for 1 h, using an excitation wavelength of 485 nm and an emission wavelength of 555 nm. The ability to inhibit ROS production by activated neutrophil-differentiated HL-60 cells was compared against the different controls. A control was performed with cells activated by PMA in the presence of DMSO and established as having 100% of the ROS-induced fluorescence. Inhibition control was performed in the presence of VAS2870 (20 µM) and activated by PMA. Another control (NA, not activated) was done with cells in the absence of PMA and the indole heteroaryl-acrylonitriles.
All the experiments were performed in triplicate, using three different cell preparations, and the data were reported as mean ± s.e.m. For the determination of the IC50 of the indole heteroaryl-acrylonitriles, concentration-response curves (0.05 to 50 μM) were constructed. IC50 values were given as the mean ± standard deviation for at least three independent assays. The data were analyzed using one- and two-way ANOVA. A value of p < 0.05 was considered statistically significant. Statistical analyses were performed using the program GraphPad Prism® version 6.00, San Diego, CA, USA.

HL-60 cells = assay: MTT cytotoxicity assay; format: cell-based, human; conditions: 72 h, 0.01 µM to 100 µM, MTT
Description: as §1

[1] = DPPH radical scavenging activity; format: physicochemical
Description: The newly synthesized compounds were evaluated for 2,2-diphenyl-1-picrylhydrazyl […] free radical scavenging activity. The reduction and stabilization of DPPH by antioxidant compounds lead to discoloration, resulting in a decrease in absorbance at 517 nm, which was expressed as a percentage of the radical solution at a given concentration of discoloration. The heteroarylacrylonitrile derivatives were re-suspended in a minimum of DMSO at a final concentration of 5 mg/mL (stock solution). From these, they were diluted to concentrations of 1000, 500, and 100 μg/mL. These solutions were mixed with a methanol solution of DPPH (20 μg/mL) for 5 min. Each compound was evaluated in triplicate; absorbance at 517 nm in a UNICAM UV/visible spectrophotometer Helios-α (Thermo Electron Corporation, Waltham, MA USA) was measured by subtracting the solvent absorbance and comparing the resulting value with that of a blank sample. The percentage of discoloration was established according to the following formula: % Radical removal or discoloration = (1 − (AM − ABM)/AC) × 100, where AM is the absorbance of the sample compound, ABM is the absorbance of the sample blank, and AC is the absorbance of the control. The degree of discoloration indicates the efficacy of the compounds studied as free radical scavengers; therefore, a percentage of discoloration of 100 indicates the maximum radical scavenging capacity and a value close to 0 indicates a zero radical scavenging capacity. Quercetin was used as a reference compound in a concentration range of 1.25 to 7.5 μg/mL.

SMILES | IC50 (NOX2) [µM] | other results
N#C/C(=C\c1ccc(-c2ccc(Cl)cc2)o1)C(=O)c1c[nH]c2ccccc12 [Compound C1] | 21.5 ± 0.3 | viability at 24 h, 10 mM (MTT cytotoxicity assay): 60%
Cc1nn(-c2ccccc2)c(Cl)c1/C=C(\C#N)C(=O)c1c[nH]c2ccccc12 [Compound C2] | 7.2 ± 0.3 | 
N#C/C(=C\c1ccc(-c2ccccc2)cc1)C(=O)c1c[nH]c2ccccc12 [Compound C3] |  | cytotoxicity (in words) (HL-60 cells): non-cytotoxic
N#C/C(=C\c1ccc(N2CCOCC2)cc1)C(=O)c1c[nH]c2ccccc12 [Compound C4] | 7.1 ± 0.4 | antioxidant capacity, DPPH discoloration (in words) [1]: showed antioxidant capacity only at very high concentrations; viability at 24 h, 10 mM (MTT cytotoxicity assay): 60%
N#C/C(=C\c1cc(-c2ccc(F)cc2)on1)C(=O)c1c[nH]c2ccccc12 [Compound C5] | 6.2 ± 0.4 | 
N#C/C(=C\c1ccc(-c2ccc([N+](=O)[O-])cc2)o1)C(=O)c1c[nH]c2ccccc12 [Compound C7] | 68.1 ± 1.2 | 
CC(C)c1ccc2occ(/C=C(\C#N)C(=O)c3c[nH]c4ccccc34)c(=O)c2c1 [Compound C8] | 17.1 ± 0.2 | antioxidant capacity, DPPH discoloration (in words) [1]: showed antioxidant capacity only at very high concentrations; viability at 24 h, 10 mM (MTT cytotoxicity assay): 60%
Cc1ccc2occ(/C=C(\C#N)C(=O)c3c[nH]c4ccccc34)c(=O)c2c1 [Compound C9] | 4.7 ± 0.3 | antioxidant capacity, DPPH discoloration (in words) [1]: showed antioxidant capacity only at very high concentrations; cytotoxicity (in words) (HL-60 cells): non-cytotoxic; inhibition of NOX2-derived ROS production (in words) (NOX2; PMA-activated HL-60 cells, 0.05 µM to 50 µM): exhibited concentration-dependent inhibition of NOX2
N#C/C(=C\c1coc2ccccc2c1=O)C(=O)c1c[nH]c2ccccc12 [Compound C10] | 9.4 ± 0.3 | viability at 24 h, 10 mM (MTT cytotoxicity assay): 60%
CCc1ccc2occ(/C=C(\C#N)C(=O)c3c[nH]c4ccccc34)c(=O)c2c1 [Compound C11] | 19.9 ± 0.2 | 
N#C/C(=C\c1c(N)oc2ccccc2c1=O)C(=O)c1c[nH]c2ccccc12 [Compound C12] | 21.1 ± 0.2 | 
N#C/C(=C\c1cccnc1)C(=O)c1c[nH]c2ccccc12 [Compound C13] | 16.3 ± 0.2 | 
CC(C)(C)OC(=O)N1CCN(c2ccc(/C=C(\C#N)C(=O)c3c[nH]c4ccccc34)cc2)CC1 [Compound C15] | 30.4 ± 0.3 | 
N#C/C(=C\c1ccco1)C(=O)c1c[nH]c2ccccc12 [Compound C16] | 82.7 ± 0.2 | 
CC(=O)OCc1ccc(/C=C(\C#N)C(=O)c2c[nH]c3ccccc23)o1 [Compound C17] | 19.7 ± 0.2 | 
N#C/C(=C\c1ncc[nH]1)C(=O)c1c[nH]c2ccccc12 [Compound C18] | 51.3 ± 0.2 | 
Cn1ccnc1/C=C(\C#N)C(=O)c1c[nH]c2ccccc12 [Compound C19] | 69.3 ± 0.2 | 
